Measured values from US9145415B2, “Nitrogen-containing heterocyclic compound or salt thereof” (FUJIFILM Corporation, priority 2012, dated 2015).
Read-outs that look alike come from different tables or passages of the source.

Legend:
[1] = molecular target: T1, human FLT3 protein (FLT3 (WT)) (Homo sapiens, UniProt P36888); experiment: FLT3 inhibition test (FLT3 enzyme inhibition, time-resolved fluorescence of substrate peptide phosphorylation); type: biochemical; conditions: read-out: FLT3 (WT) enzyme inhibition activity
T1 construct: human FLT3 protein (intracellular region, 564 to 993 aa); GST; purchased Carna Biosciences; host or cells: baculovirus expression system
T1 sequence (P36888 564-993): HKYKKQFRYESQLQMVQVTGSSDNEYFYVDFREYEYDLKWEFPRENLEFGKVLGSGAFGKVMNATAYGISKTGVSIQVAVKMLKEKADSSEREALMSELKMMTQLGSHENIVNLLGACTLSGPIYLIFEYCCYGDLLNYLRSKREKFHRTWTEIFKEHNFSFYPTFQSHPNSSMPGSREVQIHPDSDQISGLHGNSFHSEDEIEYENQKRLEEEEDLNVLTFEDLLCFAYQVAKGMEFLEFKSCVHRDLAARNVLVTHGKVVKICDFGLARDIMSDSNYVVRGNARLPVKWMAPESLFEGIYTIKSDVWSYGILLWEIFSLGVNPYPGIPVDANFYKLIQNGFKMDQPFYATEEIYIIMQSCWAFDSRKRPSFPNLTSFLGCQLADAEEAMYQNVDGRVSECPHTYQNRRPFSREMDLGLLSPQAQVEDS
Procedure: The FLT3 inhibition test was performed for the compounds of the present invention by the method described below.
A reaction mixture in a volume of 9 μL containing the FLT3 protein and a test compound of a predetermined concentration (1.2 μg of FLT3, 100 mM HEPES, 10 mM MgCl2, 25 mM NaCl, 0.01% BSA, 1 mM DTT, pH 7.5) was left standing at 25° C. for 15 minutes. […] (Toray Industries), and 3 μL (final concentration 50 μM) of ATP (Sigma-Aldrich) were added to the reaction mixture, and the mixture was shaken for 2 minutes, and then further left standing at 25° C. for 30 minutes to allow the enzymatic reaction.

MV4-11 cells = experiment: Leukemia cell proliferation inhibition test (ATPlite), MV4-11; type: cell-based; conditions: read-out: MV4-11 cell proliferation inhibition effect
Procedure: (§1) A leukemia cell proliferation inhibition test was performed for the compounds of the present invention by using the leukemia cell strains MV4-11 (ATCC Number, CRL-9591) and Molm-13 (DSMZ Number, ACC554).
(§2) The leukemia cell proliferation inhibition test was performed by the method described below.
(§3) For the purpose of measuring proliferation inhibition attained with a compound, the total cell count was quantified on the basis of the total cellular ATP concentration using the ATPlite (PerkinElmer) reagent utilizing firefly luciferase. The Molm-13 or MV4-11 cells were added to the RPMI medium containing penicillin and streptomycin (penn/strep) and 10% FBS at a density of 2×10^5 cells/ml, and 50 μL (10,000 cells) of the cell suspension was inoculated to each well of a 96-well plate (Corning).
(§4) A serially diluted solution of a compound or 0.1% DMSO (solvent control) in a volume of 50 μL was added to the cells, and then the cells were cultured for 72 hours under the standard cell proliferation conditions (37° C., 5% CO2) to allow proliferation of the cells. In order to measure the proliferation of the total cells, equal volume of the ATPlite reaction mixture was added to each well in accordance with the instructions attached to ATPlite, and then luminescence count of the well was measured (relative light unit, RLU).
(§5) The RLU signal observed with the DMSO solvent control after 72 hours of the culture was defined as a signal indicating 0% inhibition, and the GI50 value for the proliferation inhibition corresponds to a concentration of a compound that provides 50% inhibition based on the proliferation of the total cells contained in the DMSO solvent control. Each data point was obtained from samples in duplicate. The GI50 values were calculated by the non-linear regression fitting (Fit Model (205)) according to a sigmoid dose-reaction equation using the XLfit software.

Molm-13 cells = experiment: Leukemia cell proliferation inhibition test (ATPlite), Molm-13; type: cell-based; conditions: read-out: MOLM13 cell proliferation inhibition effect
Procedure: as §1, §2, §3, §4, §5

[2] = GST-fused human FLT3 (564 to 993 aa), ATP 50 μM
[3] = Homo sapiens, MV4-11, 72 h, MV4-11, 72 hours culture, ATPlite, GI50 per method
[4] = Homo sapiens, MOLM-13, 72 h, Molm-13, 72 hours culture, ATPlite, GI50 per method
[5] = Homo sapiens, MV4-11, MV4-11 cell
[6] = Homo sapiens, MOLM-13, MOLM13 cell

Row | Structure (SMILES) | IC50 [1, 2] | IC50 (MV4-11 cells; [3]) | IC50 (Molm-13 cells; [4]) | IC50 ([1]; FLT3 (WT)) | IC50 (MV4-11 cells; [5]) | IC50 (Molm-13 cells; [6]) | IC50 (MV4-11 cells; MV4-11, 72 hours culture, ATPlite, GI50 per method) | IC50 (Molm-13 cells; Molm-13, 72 hours culture, ATPlite, GI50 per method)
1 | CCCNc1nc(Nc2ccc(C#N)cc2)ncc1C#CCCCNC(=O)CN(C)C(=O)/C=C/CN(C)C [Compound 7-9, (E)-N-(2-((5-(2-((4-Cyanophenyl)amino)-4-(propylamino)pyrimidin-5-yl)-4-pentyn-1-yl)amino)-2-oxoethyl)-4-(dimethylamino)-N-methyl-2-butenamide] | < 10 nM | < 10 nM | < 10 nM |  |  |  |  | 
2 | CCCNc1nc(Nc2ccc(C(N)=O)cc2)ncc1C#Cc1cccc(NC(=O)[C@H](C)N(C)C(=O)/C=C/CN(C)C)c1 [Compound 8-2, (S,E)-4-((5-((3-(2-(4-(Dimethylamino)-N-methyl-2-butenamido)propanamido)phenyl)ethynyl)-4-(propylamino)pyrimidin-2-yl)amino)benzamide] | < 10 nM | < 10 nM | < 10 nM |  |  |  |  | 
3 | CCCNc1nc(NC(=O)Nc2ccncc2)ncc1C(=O)Nc1cccc(NC(=O)[C@H](C)NC(=O)/C=C/CN(C)C)c1 [Compound 6-15] | < 10 nM | 100 to 1000 nM | 100 to 1000 nM |  |  |  |  | 
4 | COc1ccc(Nc2ncc(C#CCCCNC(=O)[C@H](C)N(C)C(=O)/C=C/CN(C)C)c(NCCCF)n2)cc1F [Compound 7-56, (S,E)-4-(Dimethylamino)-N-(1-((5-(2-((3-fluoro-4-methoxyphenyl)amino)-4-((3-fluoropropyl)amino)pyrimidin-5-yl)-4-pentyn-1-yl)amino)-1-oxopropan-2-yl)-N-methyl-2-butenamide] | < 10 nM | < 10 nM | < 10 nM |  |  |  |  | 
5 | CCCNc1nc(Nc2ccc(F)c(F)c2)ncc1C#CCCCNC(=O)[C@H](C)N(C)C(=O)/C=C/CN(C)C [Compound 7-41] | < 10 nM | < 10 nM | < 10 nM |  |  |  |  | 
6 | C=CC(=O)N1CCC(NC(=O)c2cnc(NCCc3ccncc3)nc2NCCC)CC1 [Compound 6-18] | < 10 nM | 10 to 100 nM | 10 to 100 nM |  |  |  |  | 
7 | CCCNc1nc(Nc2cccc(F)c2)ncc1C#CCCC(=O)NCCN(C)C(=O)/C=C/CN(C)C [Compound 8-21] | 10 to 100 nM | 100 to 1000 nM | 100 to 1000 nM |  |  |  |  | 
8 | CCCNc1nc(Nc2ccc(C(N)=O)cc2)ncc1C(=O)N[C@H]1CCC[C@H](Nc2ccccc2NC(=O)/C=C/CN(C)C)C1 [Compound 3-27] | < 10 nM |  |  |  |  |  | 10 to 100 nM | 10 to 100 nM
9 | CCCNc1nc(Nc2ccc(C(N)=O)cc2)ncc1C#CCCCNC(C)(C)CNC(=O)/C=C/CN(C)C [Compound 8-10] | < 10 nM | < 10 nM | 10 to 100 nM |  |  |  |  | 
10 | CCCNc1nc(NCCc2ccncc2)ncc1C#Cc1cccc(NC(=O)[C@H](C)N(C)C(=O)/C=C/CN(C)C)c1 [Compound 8-6] | < 10 nM | < 10 nM | < 10 nM |  |  |  |  | 
11 | CCCNc1nc(Nc2ccc3cnccc3c2)ncc1C(=O)Nc1cccc(NC(=O)[C@H](C)N(C)C(=O)/C=C/CN(C)C)c1 [Compound 6-9, (S,E)-N-(3-(2-(4-(Dimethylamino)-N-methyl-2-butenamido)propanamido)phenyl)-2-(isoquinolin-6-ylamino)-4-(propylamino)pyrimidine-5-carboxamide] | < 10 nM | < 10 nM | < 10 nM |  |  |  |  | 
12 | C=CC(=O)NCC(=O)NCCNC(=O)c1cnc(NCCc2ccncc2)nc1NCCC [Compound 2-18] | 10 to 100 nM | > 1000 nM | > 1000 nM |  |  |  |  | 
13 | CCCNc1nc(Nc2ccc(F)cc2)ncc1C#CCCCNC(=O)CN(C)C(=O)/C=C/CN(C)C [Compound 7-8, (E)-4-(Dimethylamino)-N-(2-((5-(2-((4-fluorophenyl)amino)-4-(propylamino)pyrimidin-5-yl)-4-pentyn-1-yl)amino)-2-oxoethyl)-N-methyl-2-butenamide] | < 10 nM | < 10 nM | < 10 nM |  |  |  |  | 
14 | CCCNc1nc(Nc2ccc(C(N)=O)cc2)ncc1C(=O)Nc1cccc(NC(=O)[C@H](C)N(C)C(=O)/C=C/CN(CC)CC)c1 [Compound 4-8, (S,E)-2-((4-Carbamoylphenyl)amino)-N-(3-(2-(4-(diethylamino)-N-methyl-2-butenamido)propanamido)phenyl)-4-(propylamino)pyrimidine-5-carboxamide] | < 10 nM | < 10 nM | < 10 nM |  |  |  |  | 
15 | CCCNc1nc(Nc2ccc(C(N)=O)cc2)ncc1C(=O)Nc1cccc(NC(=O)[C@H](C)NC(=O)/C=C/CN(C)C)c1 [Compound 3-12] | < 10 nM | 10 to 100 nM | 10 to 100 nM |  |  |  |  | 

Results, then the molecule that gave them:

Row | IC50 [1, 2] | IC50 (MV4-11 cells; [3]) | IC50 (Molm-13 cells; [4]) | IC50 ([1]; FLT3 (WT)) | IC50 (MV4-11 cells; [5]) | IC50 (Molm-13 cells; [6]) | IC50 (MV4-11 cells; MV4-11, 72 hours culture, ATPlite, GI50 per method) | IC50 (Molm-13 cells; Molm-13, 72 hours culture, ATPlite, GI50 per method) | Structure (SMILES)
16 | < 10 nM | < 10 nM | < 10 nM |  |  |  |  |  | CCCNc1nc(Nc2cccc(F)c2)ncc1-c1cn(CCNC(=O)[C@H](C)N(C)C(=O)/C=C/CN(C)C)nn1 [Compound 17-2, (S,E)-4-(dimethylamino)-N-(1-((2-(4-(2-((3-fluorophenyl)amino)-4-(propylamino)pyrimidin-5-yl)-1H-1,2,3-triazol-1-yl)ethyl)amino)-1-oxopropan-2-yl)-N-methyl-2-butenamide]
17 |  |  |  | < 10 nM | < 10 nM | < 10 nM |  |  | CCCNc1nc(Nc2ccc3cnn(C)c3c2)ncc1C#CCCCNC(=O)[C@@H]1CCCN1C(=O)/C=C/CN(C)C [Compound 22-32]
18 | < 10 nM | < 10 nM | < 10 nM |  |  |  |  |  | CCCNc1nc(Nc2ccc(C#N)c(F)c2)ncc1C#CCCCNC(=O)[C@H](C)N(C)C(=O)/C=C/CN(C)C [Compound 9-25]
19 |  |  |  | < 10 nM | < 10 nM | < 10 nM |  |  | COCCNc1nc(Nc2ccc(C#N)cc2)ncc1C#C[C@@H]1CCC[C@H](NC(=O)[C@H](C)N(C)C(=O)/C=C/CN(C)C)C1 [Compound 22-39]
20 | < 10 nM | < 10 nM | 10 to 100 nM |  |  |  |  |  | COCCCNc1nc(Nc2ccc(F)nc2)ncc1C#CCCCNC(=O)CN(C)C(=O)/C=C/CN(C)C [Compound 10-31]
21 |  |  |  | < 10 nM | 10 to 100 nM | 10 to 100 nM |  |  | CCCNc1nc(NC)ncc1C#C[C@@H]1CCC[C@H](NC(=O)[C@H](C)N(C)C(=O)/C=C/CN(C)C)C1 [Compound 21-35]
22 | < 10 nM | < 10 nM | 10 to 100 nM |  |  |  |  |  | CCCNc1nc(Nc2cccc(OC(F)(F)F)c2)ncc1C#CCCCNC(=O)[C@H](C)N(C)C(=O)/C=C/CN(C)C [Compound 11-10]
23 | < 10 nM | < 10 nM | < 10 nM |  |  |  |  |  | COCCCNc1nc(Nc2ccnc(OC)c2)ncc1C#CCCCNC(=O)[C@@H]1CCCN1C(=O)/C=C/CN(C)C [Compound 9-32, (S,E)-1-(4-(Dimethylamino)-2-butenoyl)-N-(5-(4-((3-methoxypropyl)amino)-2-((methoxypyridin-4-yl)amino)pyrimidin-5-yl)-4-pentyn-1-yl)pyrrolidine-2-carboxamide]
24 | < 10 nM | < 10 nM | < 10 nM |  |  |  |  |  | C[C@@H](C(=O)NCCCC#Cc1cnc(Nc2ccc(C#N)cc2)nc1N1CCCC1)N(C)C(=O)/C=C/CN(C)C [Compound 9-1, (S,E)-N-(1-((5-(2-((4-cyanophenyl)amino)-4-(pyrrolidin-1-yl)pyrimidin-5-yl)-4-pentyn-1-yl)amino)-1-oxopropan-2-yl)-4-(dimethylamino)-N-methyl-2-butenamide]
